Data reported in patent US8952024B2, “Herbicidal pyrimidone derivatives” (E I du Pont de Nemours and Company, priority 2009, dated 2015).
Read-outs that look alike come from different tables or passages of the source.

Assays:
Assay in all cases: Test B pre-/postemergence plant response
Assay type in all cases: in vivo
[1] = tested on: bermudagrass (Cynodon dactylon); settings: for pest or weed control at 31 g/ha: 31 g ai/ha; for pest or weed control at 62 g/ha: 62 g ai/ha; for pest or weed control at 125 g/ha: 125 g ai/ha
Outline: (§1)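 Visual ratings on a 0–100 scale (100 = complete control) were made versus untreated controls 13–15 days after treatment in a greenhouse. Compounds in surfactant-containing non-phytotoxic solvent were applied preemergence to seeds in loam–sand blend or postemergence to 1- to 4-leaf plants (2–18 cm).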

[2] = tested on: cocklebur (Xanthium strumarium); settings: Preemergence
Outline: as §1

[3] = tested on: goosegrass (Eleusine indica); settings: for pest or weed control at 31 g/ha: 31 g ai/ha; for pest or weed control at 62 g/ha: 62 g ai/ha; for pest or weed control at 125 g/ha: 125 g ai/ha
Outline: as §1

[4] = tested on: green foxtail (Setaria viridis); settings: for pest or weed control at 31 g/ha: 31 g ai/ha; for pest or weed control at 62 g/ha: 62 g ai/ha; for pest or weed control at 125 g/ha: 125 g ai/ha
Outline: as §1

[5] = tested on: lambsquarters (Chenopodium album); settings: for pest or weed control at 31 g/ha: 31 g ai/ha; for pest or weed control at 62 g/ha: 62 g ai/ha; for pest or weed control at 125 g/ha: 125 g ai/ha
Outline: as §1

[6] = tested on: large crabgrass (Digitaria sanguinalis); settings: Digitaria sanguinalis, read-out: Plant response rating, Crabgrass, Large; for pest or weed control at 31 g/ha: 31 g ai/ha
Outline: as §1

[7] = Cynodon dactylon, pre-emergence, Preemergence, scale 0 to 100 (0 no effect, 100 complete control), read-out: Plant response rating, Bermudagrass
[8] = Eleusine indica, pre-emergence, Preemergence, scale 0 to 100 (0 no effect, 100 complete control), read-out: Plant response rating, Goosegrass
[9] = Preemergence, 250 g ai/ha, 0 to 100 scale
[10] = Setaria viridis, pre-emergence, Preemergence, scale 0 to 100 (0 no effect, 100 complete control), read-out: Plant response rating, Foxtail, Green
[11] = Chenopodium album, pre-emergence, Preemergence, scale 0 to 100 (0 no effect, 100 complete control), read-out: Plant response rating, Lambsquarters

COCCn1c(-c2cc(F)cc(F)c2)ncc(C(=O)C2=C(O)C3CCC(C3)C2=O)c1=O (stereo not shown) [Compound 243, 2-(3,5-difluorophenyl)-5-[(2-hydroxy-4-oxobicyclo[3.2.1]oct-2-en-3-yl)carbonyl]-3-(2-methoxyethyl)-4(3H)-pyrimidinone]
98%: pest or weed control at 31 g/ha ([1]; Cynodon dactylon, post-emergence, Postemergence, 0 to 100 scale (0 no effect, 100 complete control), read-out: Plant response rating, Bermudagrass) | pest or weed control at 62 g/ha ([1]; Cynodon dactylon, post-emergence, Postemergence, scale 0 to 100 (0 no effect, 100 complete control), read-out: Plant response rating, Bermudagrass) | pest or weed control at 125 g/ha ([3]; Eleusine indica, post-emergence, Postemergence, scale 0 (no effect) to 100 (complete control), 13 to 15 days, read-out: Plant response rating, Goosegrass) | pest or weed control at 250 g/ha ([3]; Eleusine indica, post-emergence, Postemergence, 250 g ai/ha, scale 0 to 100 (0 no effect, 100 complete control), 13 to 15 days, read-out: Plant response rating, Goosegrass) | pest or weed control at 31 g/ha [3, 8] | pest or weed control at 31 g/ha ([4]; Setaria viridis, post-emergence, Postemergence, 0 to 100 scale (0 no effect, 100 complete control), read-out: Plant response rating, Foxtail, Green) | pest or weed control at 62 g/ha ([4]; Setaria viridis, post-emergence, Postemergence, scale 0 to 100 (0 no effect, 100 complete control), read-out: Plant response rating, Foxtail, Green)
98: Cocklebur plant response rating ([2]; 250 g ai/ha, 0 to 100 scale)
100: Bermudagrass plant response rating ([1]; Preemergence, 250 g ai/ha, 0 to 100 scale, 0 no effect, 100 complete control) | Goosegrass plant response rating [3, 9] | Foxtail, Green plant response rating [4, 9] | Lambsquarters plant response rating [5, 9]
35%: pest or weed control at 31 g/ha [4, 10]
75%: pest or weed control at 62 g/ha ([2]; Xanthium strumarium, pre-emergence, 62 g ai/ha, scale 0 to 100 (0 no effect, 100 complete control), read-out: Plant response rating, Cocklebur)
100%: pest or weed control at 125 g/ha ([1]; Cynodon dactylon, post-emergence, Postemergence, scale 0 (no effect) to 100 (complete control), 13 to 15 days, read-out: Plant response rating, Bermudagrass) | pest or weed control at 250 g/ha ([1]; Cynodon dactylon, post-emergence, Postemergence, 250 g ai/ha, scale 0 to 100 (0 no effect, 100 complete control), 13 to 15 days, read-out: Plant response rating, Bermudagrass) | pest or weed control at 31 g/ha [1, 7] | pest or weed control at 62 g/ha [1, 7] | pest or weed control at 125 g/ha ([1]; Cynodon dactylon, pre-emergence, Preemergence, scale 0 to 100, 0 no effect, 100 complete control, read-out: Plant response rating, Bermudagrass) | pest or weed control at 62 g/ha [3, 8] | pest or weed control at 125 g/ha ([3]; Eleusine indica, pre-emergence, Preemergence, scale 0 to 100, 0 no effect, 100 complete control, read-out: Plant response rating, Goosegrass) | pest or weed control at 125 g/ha ([4]; Setaria viridis, post-emergence, Postemergence, scale 0 (no effect) to 100 (complete control), 13 to 15 days, read-out: Plant response rating, Foxtail, Green) | pest or weed control at 250 g/ha ([4]; Setaria viridis, post-emergence, Postemergence, 250 g ai/ha, scale 0 to 100 (0 no effect, 100 complete control), 13 to 15 days, read-out: Plant response rating, Foxtail, Green) | pest or weed control at 62 g/ha [4, 10] | pest or weed control at 125 g/ha ([4]; Setaria viridis, pre-emergence, Preemergence, scale 0 to 100, 0 no effect, 100 complete control, read-out: Plant response rating, Foxtail, Green) | pest or weed control at 31 g/ha ([5]; Chenopodium album, post-emergence, Postemergence, 0 to 100 scale (0 no effect, 100 complete control), read-out: Plant response rating, Lambsquarters) | pest or weed control at 62 g/ha ([5]; Chenopodium album, post-emergence, Postemergence, scale 0 to 100 (0 no effect, 100 complete control), read-out: Plant response rating, Lambsquarters) | pest or weed control at 125 g/ha ([5]; Chenopodium album, post-emergence, Postemergence, scale 0 (no effect) to 100 (complete control), 13 to 15 days, read-out: Plant response rating, Lambsquarters) | pest or weed control at 250 g/ha ([5]; Chenopodium album, post-emergence, Postemergence, 250 g ai/ha, scale 0 to 100 (0 no effect, 100 complete control), 13 to 15 days, read-out: Plant response rating, Lambsquarters) | pest or weed control at 31 g/ha [5, 11] | pest or weed control at 62 g/ha [5, 11] | pest or weed control at 125 g/ha ([5]; Chenopodium album, pre-emergence, Preemergence, scale 0 to 100, 0 no effect, 100 complete control, read-out: Plant response rating, Lambsquarters) | pest or weed control at 62 g/ha ([6]; post-emergence, Postemergence, 62 g ai/ha, scale 0 to 100 (0 no effect, 100 complete control)) | pest or weed control at 125 g/ha ([6]; post-emergence, Postemergence, 125 g ai/ha, scale 0 (no effect) to 100 (complete control), 13 to 15 days) | pest or weed control at 250 g/ha ([6]; post-emergence, Postemergence, 250 g ai/ha, scale 0 to 100 (0 no effect, 100 complete control), 13 to 15 days) | pest or weed control at 31 g/ha ([6]; pre-emergence, Preemergence, scale 0 to 100 (0 no effect, 100 complete control))
95%: pest or weed control at 125 g/ha ([2]; Xanthium strumarium, pre-emergence, 125 g ai/ha, scale 0 to 100, 0 no effect, 100 complete control, read-out: Plant response rating, Cocklebur) | pest or weed control at 31 g/ha ([3]; Eleusine indica, post-emergence, Postemergence, 0 to 100 scale (0 no effect, 100 complete control), read-out: Plant response rating, Goosegrass) | pest or weed control at 62 g/ha ([3]; Eleusine indica, post-emergence, Postemergence, scale 0 to 100 (0 no effect, 100 complete control), read-out: Plant response rating, Goosegrass) | pest or weed control at 31 g/ha ([6]; post-emergence, Postemergence, 0 to 100 scale (0 no effect, 100 complete control))
